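Compound exposure: 48 hours, 5 concentrations, 96-well plates. TGI: total growth inhibition.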
Experiments:
Test in all cases: NCI anticancer screen, dose series, 48 h
786-0 renal = test system: 786-0 renal
A498 renal = test system: A498 renal
A549 NSCLC = test system: A549 NSCLC
ACHN renal = test system: ACHN renal
BT-549 breast = test system: BT-549 breast
CCRF-CEM leukemia = test system: CCRF-CEM leukemia
COLO 205 colon = test system: COLO 205 colon
DU-145 prostate = test system: DU-145 prostate
EKVX NSCLC = test system: EKVX NSCLC
HCC-2998 colon = test system: HCC-2998 colon
HCT-15 colon = test system: HCT-15 colon
HL-60(TB) leukemia = test system: HL-60(TB) leukemia
HOP-62 NSCLC = test system: HOP-62 NSCLC
HS 578T breast = test system: HS 578T breast
HT29 colon = test system: HT29 colon
K-562 leukemia = test system: K-562 leukemia
KM12 colon = test system: KM12 colon
LOX IMVI melanoma = test system: LOX IMVI melanoma
M14 melanoma = test system: M14 melanoma
MALME-3M melanoma = test system: MALME-3M melanoma
MCF7 breast = test system: MCF7 breast
MDA-MB-231 breast = test system: MDA-MB-231 breast
MDA-MB-435 = test system: MDA-MB-435
MDA-N = test system: MDA-N
MOLT-4 leukemia = test system: MOLT-4 leukemia
NCI-H226 lung = test system: NCI-H226 lung
NCI-H23 lung = test system: NCI-H23 lung
NCI-H460 lung = test system: NCI-H460 lung
NCI/ADR-RES ovarian = test system: NCI/ADR-RES ovarian
OVCAR-3 ovarian = test system: OVCAR-3 ovarian
OVCAR-4 ovarian = test system: OVCAR-4 ovarian
OVCAR-5 ovarian = test system: OVCAR-5 ovarian
OVCAR-8 ovarian = test system: OVCAR-8 ovarian
PC-3 prostate = test system: PC-3 prostate
RPMI-8226 leukemia = test system: RPMI-8226 leukemia
SF-268 CNS = test system: SF-268 CNS
SF-295 CNS = test system: SF-295 CNS
SF-539 CNS = test system: SF-539 CNS
SK-MEL-2 melanoma = test system: SK-MEL-2 melanoma
SK-MEL-28 melanoma = test system: SK-MEL-28 melanoma
SK-MEL-5 melanoma = test system: SK-MEL-5 melanoma
SK-OV-3 ovarian = test system: SK-OV-3 ovarian
SN12C renal = test system: SN12C renal
SNB-19 CNS = test system: SNB-19 CNS
SNB-75 CNS = test system: SNB-75 CNS
SR leukemia = test system: SR leukemia
SW-620 colon = test system: SW-620 colon
T-47D breast = test system: T-47D breast
TK-10 renal = test system: TK-10 renal
U251 CNS = test system: U251 CNS
UACC-257 melanoma = test system: UACC-257 melanoma
UACC-62 melanoma = test system: UACC-62 melanoma
UO-31 renal = test system: UO-31 renal
CAKI-1 renal = test system: CAKI-1 renal
HCT-116 colon = test system: HCT-116 colon
HOP-92 NSCLC = test system: HOP-92 NSCLC
IGROV1 ovarian = test system: IGROV1 ovarian
NCI-H522 lung = test system: NCI-H522 lung
RXF 393 renal = test system: RXF 393 renal

Measured: TGI

COC(=O)C1(N2CCOCC2)CCC([C@@H](c2ccccc2)C(C)[N+](=O)[O-])C1 (stereo partly drawn)
59.6 µM: DU-145 prostate
42.9 µM: RPMI-8226 leukemia
20.3 µM: CCRF-CEM leukemia
71.3 µM: OVCAR-3 ovarian
86.9 µM: UACC-257 melanoma
9.62 µM: T-47D breast
60.4 µM: SR leukemia
60.8 µM: BT-549 breast
54.5 µM: MCF7 breast
not listed: CAKI-1 renal | HCT-116 colon | HOP-92 NSCLC | IGROV1 ovarian | NCI-H522 lung | RXF 393 renal
> 100 µM: all other assays above

Cc1ccc(O)c(C(=O)/C=C/c2ccccc2)c1
not listed: A498 renal | MALME-3M melanoma
> 100 µM: all other assays above

COc1cc(OC)c(OC)cc1/C=C/c1ccc2ccccc2n1
not listed: A498 renal | EKVX NSCLC | NCI-H226 lung | NCI-H460 lung | SK-MEL-2 melanoma | SNB-19 CNS | UO-31 renal | RXF 393 renal
> 10 µM: all other assays above

O=c1oc2c(Cl)cc(Cl)cc2cc1-c1cn2c(n1)sc1ccccc12
53.1 µM: SR leukemia
55.6 µM: CCRF-CEM leukemia
92.4 µM: SW-620 colon
66.9 µM: HL-60(TB) leukemia
95 µM: HCC-2998 colon
88.8 µM: NCI-H522 lung
52 µM: MOLT-4 leukemia
53.3 µM: K-562 leukemia
87.4 µM: BT-549 breast
89.1 µM: RPMI-8226 leukemia
not listed: A498 renal | NCI-H226 lung
> 100 µM: all other assays above

Reference: PubChem BioAssay (NCI)
